Results taken from US9492508B2, “Parathyroid hormone analogs and uses thereof” (The General Hospital Corporation, priority 2010, dated 2016).
Ends that are not written are not given here.

Tests used:
human PTHR1 (R0) = target: T1, human PTHR1 (R0) (Homo sapiens, UniProt Q03431); test: Competition binding, R0 conformation of human PTHR1 (COS-7 membranes, 125I-PTH(1-34) tracer, GTPγS); details: for R0 binding at human PTH receptor as compared to PTH(1-34): FIG. 5A
T1 construct: expressed in transfected cells; host or cells: COS-7 cells (membranes)
T1 sequence (Q03431 27-593): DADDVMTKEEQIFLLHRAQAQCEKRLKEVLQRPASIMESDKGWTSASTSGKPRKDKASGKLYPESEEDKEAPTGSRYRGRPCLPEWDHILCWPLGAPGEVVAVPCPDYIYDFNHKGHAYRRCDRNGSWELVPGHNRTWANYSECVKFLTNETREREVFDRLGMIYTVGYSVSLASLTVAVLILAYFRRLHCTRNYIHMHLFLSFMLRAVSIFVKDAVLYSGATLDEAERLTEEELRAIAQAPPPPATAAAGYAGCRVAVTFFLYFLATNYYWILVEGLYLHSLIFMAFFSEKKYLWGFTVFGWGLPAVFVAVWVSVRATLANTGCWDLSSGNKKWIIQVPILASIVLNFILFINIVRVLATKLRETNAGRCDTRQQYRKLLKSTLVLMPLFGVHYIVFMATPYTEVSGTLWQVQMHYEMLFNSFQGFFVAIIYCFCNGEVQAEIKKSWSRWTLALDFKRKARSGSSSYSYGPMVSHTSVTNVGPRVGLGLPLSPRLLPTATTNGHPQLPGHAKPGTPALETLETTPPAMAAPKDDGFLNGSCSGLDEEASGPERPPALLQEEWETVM
Procedure: Briefly, the R^0 form of the receptor can be favored by addition of the non-hydrolyzable nucleotide analog GTPγS. The RG form can be favored, for example, by co-transfection of cells with a negative dominant Gαs subunit. […] Data are means of four experiments, each performed in duplicate. Curves were fit to the data using Graph-Pad Prism 4.0.
Here, competition binding assays for the R^0 and RG PTHR1 conformation were performed in membranes prepared from transfected COS-7 cells, as described by Dean et al., Mol Endocrinol 22:156-66, 2008. Data are means of three experiments, each performed in duplicate. Curves were fit to the data using Graph-Pad Prism 4.0.

[1] = Hypercalcemic assay in cynomolgus monkeys (serum and urinary calcium and phosphate); type: in vivo, cynomolgus monkey; details: for serum calcium: 0.25 nmol/kg intravenous, FIG. 12A; for serum calcium, subcutaneous two doses: 2.5 or 10 nmol/kg subcutaneous, FIG. 15A
Procedure: The effects of the SP-PTH (SEQ ID NO:11) and SP-PTH-AAK (SEQ ID NO:4) (“SP-AAK”) on serum and urinary calcium and phosphate levels were tested in cynomolgus monkeys. Briefly, three- or four-year-old, male cynomolgus monkeys (HAMRI Co., Ltd., Ibaraki, Japan) were measured for their body weight. Blood was collected into tubes. Monkeys received intravenous or subcutaneous administration of each polypeptide at a dose of 0.3 ml/kg. Polypeptide concentrations in stock solution were adjusted by dilution with 25 mmol/L phosphate-citrate buffer/100 mmol/L NaCl/0.05% Tween 80 (pH.5.0) (PC-buffer). All polypeptides were allowed to stand on ice immediately before administration. Polypeptides were administered to groups of three monkeys each respectively. At 1, 2, 4, and 8 hours after administration, blood was collected by saphenous vein to monitor the time course of calcium and phosphorus levels (FIG. 11A).
Similar experiments were performed using subcutaneous injection of the polypeptides using two different doses (2.5 nmol/kg or 10 nmol/kg; FIG. 14). […] Reductions in serum inorganic phosphate were also observed (FIGS. 15B and 15C). […] Urine calcium and phosphate data were also collected. Urine was collected in 24-hour intervals prior to injection (T=0) and at times thereafter and assessed for Ca (FIGS. 15E and 15G), Pi (FIGS. 15F and 15H) and creatinine; [Ca] and [PI] are expressed as ratios to [creatinine]. FIGS. 15G and 15H present the change from the pre-injection values. Data are means±s.e.m.; n=3/group.

MC3T3-E1 cells [2] = test: cAMP response following ligand wash-out in MC3T3-E1 cells; type: cell-based, mouse; details: 100 nM ligand 5 min, then wash-out; FIGS. 7A, 7B
Procedure: Cells were treated at room temperature with vehicle or the indicated ligand (100 nM) for five minutes; for each ligand duplicate wells were used to obtain the initial (maximum cAMP values); in these wells, cells were co-incubated with ligand and IBMX. After five minutes of initial treatment, the buffer was removed, and, for the initial wells, the reactions were terminated by addition of 50 mM HCl. In the other wells, the cells were rinsed three times with buffer, and incubated in buffer for varying times, as indicated on the abscissa; after which the buffer was replaced by a buffer containing IBMX, and the cells were incubated for another five minutes. After that, the buffer was removed and the reactions were terminated by addition of 50 mM HCl. The cAMP contents of the HCl lysates were then determined by RIA.

[3] = Blood Ca++ responses in mice; type: in vivo, mice (C57 BL/6); details: 5 nmol/kg s.c., 4, 6, 8 and 24 hours
Procedure: Blood Ca^++ responses in mice were also assayed. Mice (C57 BL/6) were injected subcutaneously with either vehicle or the indicated ligand to give a final dose of 5 nmol/kg body weight, and blood was withdrawn via the tail at times after injection and assessed for Ca^++ concentration using a Bayer Rapid Lab model 348 blood analyzer. […] A similar experiment using 10 nmol/kg by intravenous injection was also conducted with similar results (FIGS. 8C and 8D).

MC3T3-E1 cells [4] = test: cAMP RIA in intact MC3T3-E1 cells; type: cell-based, mouse; details: 30 min, room temperature, IBMX; for cAMP MC3T3-E1 cells EC50 (Log M): 6 experiments
Method in brief: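 Intact mouse pre-osteoblastic MC3T3-E1 cells were stimulated with polypeptide. cAMP in HCl lysates was measured by radioimmunoassay. Values are means of six duplicate experiments with fitted curves.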

Row | Substance | R0 binding at human PTH receptor as compared to PTH(1-34) (human PTHR1 (R0)) | serum calcium [1] | serum calcium, subcutaneous two doses [1] | cAMP-stimulating activity after ligand wash-out (MC3T3-E1 cells [2]) | blood calcium levels at later time points vs PTH(1-34) or vehicle [3] | EC50 (MC3T3-E1 cells [4]) [nM] | cAMP MC3T3-E1 cells Emax (pmole/well) (MC3T3-E1 cells [4]) | cAMP MC3T3-E1 cells EC50 (Log M) (MC3T3-E1 cells [4]) | IC50 (human PTHR1 (R0); R0 conformation, mean of 3 experiments, read-out: Binding human PTHR1 IC50 (Log M) R0 (converted)) [nM]
1 | AVAEIQLMHQRAKWIQDARRRAFLHKLIAEIHTAEI-OH [SP-PTH-AAK, [Ala^1,3,12,18,22,Gln^10,Arg^11,Trp^14,Lys^26]PTH(1-14)/PTHrP(15-36)] | enhanced R^0 binding | increased serum calcium | increases in serum calcium were observed in a dose dependent manner | maintained cAMP-stimulating activity for longer periods of time than PTH(1-34) | increased | 0.0063 | 62.3 ± 13.6 | −11.2 ± 0.2 | 
2 | AVAEIQLMHQRAKWIQDLRRRFFLHHLIAEIHTAEI-OH [SP-PTH, [Ala^1,3,12,Gln^10,Arg^11,Trp^14]PTH(1-14)/PTHrP(15-36)] | enhanced R^0 binding | increased serum calcium | increases in serum calcium were observed in a dose dependent manner | maintained cAMP-stimulating activity for longer periods of time than PTH(1-34) | increased | 0.044 | 60.6 ± 12.4 | −10.4 ± 0.1 | 1.38
